Test results: US20050234046A1 (Kalypsys, Inc., priority 2004, published 2005)

Experiments:
Assay in all cases: Transient transfection (transactivation) assay in CV-1 cells, GAL4-PPAR chimera, luciferase reporter
Type in all cases: cell-based
PPAR alpha = biological target: T1, PPAR alpha (Homo sapiens, UniProt Q07869)
T1 construct: expressed in transfected cells; host or cells: CV-1 cells
T1 sequence (Q07869 239-466 limits assumed): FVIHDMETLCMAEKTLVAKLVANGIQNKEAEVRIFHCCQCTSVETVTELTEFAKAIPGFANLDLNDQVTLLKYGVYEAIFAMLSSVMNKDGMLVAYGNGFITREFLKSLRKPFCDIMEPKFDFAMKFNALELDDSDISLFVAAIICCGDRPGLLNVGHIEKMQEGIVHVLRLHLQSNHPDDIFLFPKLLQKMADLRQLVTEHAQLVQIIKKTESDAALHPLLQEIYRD
Description: Compounds may be screened for functional potency in transient transfection assays in CV-1 cells or other cell types for their ability to activate the PPAR subtypes (transactivation assay). A previously established chimeric receptor system was utilized to allow comparison of the relative transcriptional activity of the receptor subtypes on the same synthetic response element and to prevent endogenous receptor activation from complicating the interpretation of results. See, for example; Lehmann, J. M.; Moore, L. B.; Smith-Oliver, T. A; Wilkinson, W. O.; Willson, T. M.; Kliewer, S. A., An antidiabetic thiazolidinedione is a high affinity ligand for peroxisome proliferatur-activated receptor γ (PPARγ), J. Biol. Chem., 1995, 270, 12953-6. The ligand binding domains for murine and human PPAR-alpha, PPAR-gamma, and PPAR-delta are each fused to the yeast transcription factor GAL4 DNA binding domain. CV-1 cells were transiently transfected with expression vectors for the respective PPAR chimera along with a reporter construct containing four or five copies of the GAL4 DNA binding site driving expression of luciferase. After 8-16 h, the cells are replated into multi-well assay plates and the media is exchanged to phenol-red free DME medium supplemented with 5% delipidated calf serum. 4 hours after replating, cells were treated with either compounds or 1% DMSO for 20-24 hours. Luciferase activity was then assayed with Britelite (Perkin Elmer) following the manufacturer's protocol and measured with either the Perkin Elmer Viewlux or Molecular Devices Acquest Xsee, for example, Kliewer, S. A., et. al. Cell 1995, 83, 813-819). Rosiglitazone is used as a positive control in the hPPAR-γ assay. Wy-14643 and GW7647 is used as a positive control in the hPPAR-α assay. GW501516 is used as the positive control in the hPPAR-δ assay.
Compounds of Examples 1-233 were assayed to measure their biological activity with respect to their EC50 values and efficacy for modulating PPAR-alpha, PPAR-gamma, and PPAR-delta as set forth in Table 3.

PPAR delta = biological target: T2, PPAR delta (Homo sapiens, UniProt Q03181)
T2 construct: expressed in transfected cells; host or cells: CV-1 cells
T2 sequence (Q03181 211-439 limits assumed): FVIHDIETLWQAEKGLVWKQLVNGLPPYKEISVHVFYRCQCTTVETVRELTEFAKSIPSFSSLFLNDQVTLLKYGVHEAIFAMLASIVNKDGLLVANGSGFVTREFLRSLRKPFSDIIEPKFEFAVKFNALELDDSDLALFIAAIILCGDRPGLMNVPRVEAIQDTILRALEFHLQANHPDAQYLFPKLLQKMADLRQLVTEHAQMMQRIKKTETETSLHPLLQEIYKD

PPAR gamma = biological target: T3, PPAR gamma (Homo sapiens, UniProt P37231)
T3 construct: expressed in transfected cells; host or cells: CV-1 cells
T3 sequence (P37231 238-503 limits assumed): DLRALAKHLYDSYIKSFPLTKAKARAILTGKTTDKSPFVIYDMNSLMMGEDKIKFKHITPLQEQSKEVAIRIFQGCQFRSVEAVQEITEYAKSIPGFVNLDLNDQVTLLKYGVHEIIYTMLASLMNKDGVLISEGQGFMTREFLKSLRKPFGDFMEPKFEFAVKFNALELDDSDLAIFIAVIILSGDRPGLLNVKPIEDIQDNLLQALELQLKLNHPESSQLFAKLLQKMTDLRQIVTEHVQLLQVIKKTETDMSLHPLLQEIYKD

Row | EC50 (PPAR alpha) | EC50 (PPAR delta) | EC50 (PPAR gamma) | PPAR gamma EC50 (PPAR gamma) | SMILES
1 | > 100 µM | 5 to 100 µM | > 100 µM |  | Cc1ccc(S(=O)(=O)N2[C@H](C)CN(c3nc4ccccc4o3)C[C@@H]2C)cc1CC(=O)O [Example 24, [5-(4-Benzooxazol-2-yl-2,6-dimethyl-piperazine-1-sulfonyl)-2-methyl-phenyl]-acetic acid]
2 | > 100 µM | 5 to 100 µM | > 100 µM |  | Cc1ccc(S(=O)(=O)N2CCCN(c3nc4ccccc4o3)CC2)cc1CC(=O)O [Example 26, [5-(4-Benzooxazol-2-yl-[1,4]diazepane-1-sulfonyl)-2-methyl-phenyl]-acetic acid]
3 | > 100 µM | < 5 µM | > 100 µM |  | COC(=O)[C@H]1CN(c2ccc(C(F)(F)F)cn2)CCN1S(=O)(=O)c1ccc(C)c(CC(=O)O)c1 [Example 29, (R)-1-(3-Carboxymethyl-4-methyl-benzenesulfonyl)-4-(5-trifluoromethyl-pyridin-2-yl)-piperazine-2-carboxylic acid methyl ester]
4 | 5 to 100 µM | < 5 µM | 5 to 100 µM |  | CCc1ccc(N2CCN(S(=O)(=O)c3ccc(C)c(CC(=O)O)c3)CC2)cc1 [Example 30, {5-[4-(4-Ethyl-phenyl)-piperazine-1-sulfonyl]-2-methyl-phenyl}-acetic acid]
5 | < 5 µM | 5 to 100 µM | 5 to 100 µM |  | Cc1ccc(S(=O)(=O)N2CCN(c3ccc(C(C)(C)C)cc3)CC2)cc1CC(=O)O [Example 32, {5-[4-(4-tert-Butyl-phenyl)-piperazine-1-sulfonyl]-2-methyl-phenyl}-acetic acid]
6 | < 5 µM | < 5 µM | < 5 µM |  | Cc1ccc(S(=O)(=O)N2CCN(c3ccc(C(F)(F)F)cc3F)CC2)cc1CC(=O)O [Example 33]
7 | 5 to 100 µM | < 5 µM | 5 to 100 µM |  | Cc1ccc(S(=O)(=O)N2CCN(c3cc(C(F)(F)F)ccn3)CC2)cc1CC(=O)O [Example 35, {2-Methyl-5-[4-(4-trifluoromethyl-pyridin-2-yl)-piperazine-1-sulfonyl]-phenyl}-acetic acid]
8 | > 100 µM | < 5 µM | > 100 µM |  | COC(=O)[C@@H]1CN(c2ccc(C(F)(F)F)cn2)CCN1S(=O)(=O)c1ccc(C)c(CC(=O)O)c1 [Example 37, (S)-1-(3-Carboxymethyl-4-methyl-benzenesulfonyl)-4-(S-trifluoromethyl-pyridin-2-yl)-piperazine-2-carboxylic acid methyl ester]
9 | > 100 µM | 5 to 100 µM | > 100 µM |  | COC[C@@H]1CN(S(=O)(=O)c2ccc(C)c(CC(=O)O)c2)CCN1c1ccc(C(F)(F)F)cn1 [Example 40]
10 | > 100 µM | > 100 µM | 5 to 100 µM |  | Cc1ccc(S(=O)(=O)N2CCC(c3nc(C(F)(F)F)cs3)CC2)cc1CC(=O)O [Example 46, {2-Methyl-5-[4-(4-trifluoromethyl-thiazol-2-yl)-piperidine-1-sulfonyl]-phenyl}-acetic acid]
11 | > 100 µM | 5 to 100 µM | 5 to 100 µM |  | Cc1ccc(S(=O)(=O)N2CCN(c3ncccn3)CC2)cc1CC(=O)O [Example 47]

The remaining lines, values behind:

Row | SMILES | EC50 (PPAR alpha) | EC50 (PPAR delta) | EC50 (PPAR gamma) | PPAR gamma EC50 (PPAR gamma)
12 | Cc1ccc(S(=O)(=O)N2CCN(c3ccc(C(F)(F)F)cn3)C(C)C2)cc1CC(=O)O (stereo not drawn) [Example 23, [2-Methyl-5-[3-methyl-4-(5-trifluoromethyl-pyridin-2-yl)-piperazine-1-sulfonyl]-phenyl}-acetic acid] | 5 to 100 µM | < 5 µM | < 5 µM | 
13 | Cc1ccc(S(=O)(=O)N2[C@H](C)CN(c3nc4ccccc4s3)C[C@@H]2C)cc1CC(=O)O [Example 25, [5-(4-Benzothiazol-2-yl-2,6-dimethyl-piperazine-1-sulfonyl)-2-methyl-phenyl]-acetic acid] | > 100 µM | 5 to 100 µM | > 100 µM | 
14 | Cc1ccc(S(=O)(=O)N2CCCN(c3nc4ccccc4s3)CC2)cc1CC(=O)O [Example 27, [5-(4-Benzothiazol-2-yl-[1,4]diazepane-1-sulfonyl)-2-methyl-phenyl]-acetic acid] | > 100 µM | 5 to 100 µM | 5 to 100 µM | 
15 | Cc1ccc(S(=O)(=O)N2CCN(c3ccc(C#N)cn3)CC2)cc1CC(=O)O [Example 28, {5-[4-(5-Cyano-pyridin-2-yl)-piperazine-1-sulfonyl]-2-methyl-phenyl}-acetic acid] | > 100 µM | < 5 µM | > 100 µM | 
16 | Cc1ccc(S(=O)(=O)N2CCN(c3ccc(C(C)C)cc3)CC2)cc1CC(=O)O [Example 31] | < 5 µM | < 5 µM | 5 to 100 µM | 
17 | Cc1ccc(S(=O)(=O)N2CCN(c3ccc(C(F)(F)F)c(F)c3)CC2)cc1CC(=O)O [Example 34, {5-[4-(3-Fluoro-4-trifluoromethyl-phenyl)-piperazine-1-sulfonyl]-2-methyl-phenyl}-acetic acid] | < 5 µM | < 5 µM |  | B/C
18 | Cc1ccc(S(=O)(=O)N2CCN(c3cccc(C(F)(F)F)n3)CC2)cc1CC(=O)O [Example 36, {2-Methyl-5-[4-(6-trifluoromethyl-pyridin-2-yl)-piperazine-1-sulfonyl]-phenyl}-acetic acid] | 5 to 100 µM | < 5 µM | < 5 µM | 
19 | Cc1ccc(S(=O)(=O)N2CCN(c3ccc(C(F)(F)F)cn3)C(C)(C)C2)cc1CC(=O)O [Example 38, {5-[3,3-Dimethyl-4-(5-trifluoromethyl-pyridin-2-yl)-piperazine-1-sulfonyl]-2-methyl-phenyl}-acetic acid] | > 100 µM | < 5 µM | < 5 µM | 
20 | Cc1ccc(S(=O)(=O)N2CCN(c3ccc(C(F)(F)F)cn3)CC2(C)C)cc1CC(=O)O [Example 39, {5-[2,2-Dimethyl-4-(5-trifluoromethyl-pyridin-2-yl)-piperazine-1-sulfonyl]-2-methyl-phenyl}-acetic acid] | > 100 µM | < 5 µM | < 5 µM | 
21 | COC(=O)[C@H]1CN(S(=O)(=O)c2ccc(C)c(CC(=O)O)c2)CCN1c1ccc(C(F)(F)F)cn1 [Example 41, (R)-4-(3-Carboxymethyl-4-methyl-benzenesulfonyl)- -(5-trifluoromethyl-pyridin-2-yl)-piperazine-2-carboxylic acid methyl ester] | > 100 µM | < 5 µM | 5 to 100 µM | 
22 | COC(=O)[C@@H]1CN(S(=O)(=O)c2ccc(C)c(CC(=O)O)c2)CCN1c1ccc(C(F)(F)F)cn1 [Example 42, (S)-4-(3-Carboxymethyl-4-methyl-benzenesulfonyl)-1-(5-trifluoromethyl-pyridin-2-yl)-piperazine-2-carboxylic acid methyl ester] | > 100 µM | < 5 µM | 5 to 100 µM | 
23 | Cc1ccc(S(=O)(=O)N2CCC(c3nccs3)CC2)cc1CC(=O)O [Example 43, [2-Methyl-5-(4-thiazol-2-yl-piperidine-1-sulfonyl)-phenyl]-acetic acid] | > 100 µM | > 100 µM | > 100 µM | 
24 | Cc1ccc(S(=O)(=O)N2CCN(c3ncc(I)cn3)CC2)cc1CC(=O)O [Example 44, {5-[4-(5-Iodo-pyrimidin-2-yl)-piperazine-1-sulfonyl]-2-methyl-phenyl}-acetic acid] | < 5 µM | < 5 µM | < 5 µM | 
25 | Cc1ccc(S(=O)(=O)N2CC=C(c3ccc(C(F)(F)F)cc3)CC2)cc1CC(=O)O [Example 45, {2-Methyl-5-[4-(4-trifluoromethyl-phenyl)-3,6-dihydro-2H-pyridine-1-sulfonyl]-phenyl}-acetic acid] | 5 to 100 µM | < 5 µM | 5 to 100 µM | 
